ChEMBL document CHEMBL1122714, “Pyrazolo[4,3-d]pyrimidine nucleosides. Synthesis and antiviral activity of 1-beta-D-ribofuranosyl-3-methyl-6-substituted-7H-pyrazolo[4,3-d]pyr imi din-7-ones” (1984)

The compounds below were run on Human alphaherpesvirus 1 (assay: In vitro antiviral activity by means of plaque-inhibition assay with monolayers of Vero cells infected with the MP strain of herpes simplex virus-1 (HSV-1)). Details: Human alphaherpesvirus 1, Vero; read-out: ED50 (the source's name).
Assay type: functional
`Cc1nn(C2O[C@H](CO)[C@@H](O)[C@H]2O)c2c(=O)n(Cc3ccc(Cl)cc3)cnc12` (some centres undefined) gave an EC50 of 220 µM. `Cc1nn(C2O[C@H](CO)[C@@H](O)[C@H]2O)c2c(=O)n(-c3ccc(Cl)cc3)cnc12` (some centres undefined) showed an EC50 of 50 µM. Work on `COc1ccc(Cn2cnc3c(C)nn(C4O[C@H](CO)[C@@H](O)[C@H]4O)c3c2=O)cc1` (some centres undefined) yielded an EC50 of 49.5 µM. With `Cc1nn(C2O[C@H](CO)[C@@H](O)[C@H]2O)c2c(=O)n(CCc3ccccc3)cnc12` (some centres undefined) the EC50 was 174 µM. Work on `O=c1[nH]c(=O)n([C@H]2C[C@H](O)[C@@H](CO)O2)cc1I` [IDOXURIDINE] yielded an EC50 of 1.2 µM. `Cc1ccc(-n2cnc3c(C)nn(C4O[C@H](CO)[C@@H](O)[C@H]4O)c3c2=O)cc1` (some centres undefined) gave an EC50 of 280 µM. `Cc1nn(C2O[C@H](CO)[C@@H](O)[C@H]2O)c2c(=O)n(CCC(C)C)cnc12` (some centres undefined) gave an EC50 of 350 µM. Compound `CCCCn1cnc2c(C)nn(C3O[C@H](CO)[C@@H](O)[C@H]3O)c2c1=O` (some centres undefined) has an EC50 of 152 µM. In the case of `Cc1nn(C2O[C@H](CO)[C@@H](O)[C@H]2O)c2c(=O)n(Cc3ccccc3)cnc12` (some centres undefined), the EC50 is reported as 245 µM.
